Activity calls are given as the source filed them.
What was measured:
[1] = test system: Streptococcus sp. 'group A'; experiment: Streptococcus pyogenes SK(-)GAS viability under kanamycin – luminescence, BacTiterGlo, confirmation, counter-screen for streptokinase expression inhibitor project, dose response (AID 1900); format: functional, organism-based
[2] = target: T1, Serine/threonine-protein phosphatase (Candida dubliniensis (strain CD36 / CBS 7987 / NCPF 3949 / NRRLY-17841) (Yeast), UniProt B9W6M3); experiment: blockers of CaCl2-induced CDRE-lacZ signaling – S. cerevisiae, luminescence, secondary, dose response (AID 2388); format: functional, cell-based;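 further: yeast reporter cells carrying a calcineurin-responsive lacZ construct stimulated with calcium chloride; luminescent beta-galactosidase reporter signal in whole cells rather than isolated phosphatase activity; potency for inhibition where a drop in reporter signal means calcineurin blockade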
T1 sequence (B9W6M3 whole entry): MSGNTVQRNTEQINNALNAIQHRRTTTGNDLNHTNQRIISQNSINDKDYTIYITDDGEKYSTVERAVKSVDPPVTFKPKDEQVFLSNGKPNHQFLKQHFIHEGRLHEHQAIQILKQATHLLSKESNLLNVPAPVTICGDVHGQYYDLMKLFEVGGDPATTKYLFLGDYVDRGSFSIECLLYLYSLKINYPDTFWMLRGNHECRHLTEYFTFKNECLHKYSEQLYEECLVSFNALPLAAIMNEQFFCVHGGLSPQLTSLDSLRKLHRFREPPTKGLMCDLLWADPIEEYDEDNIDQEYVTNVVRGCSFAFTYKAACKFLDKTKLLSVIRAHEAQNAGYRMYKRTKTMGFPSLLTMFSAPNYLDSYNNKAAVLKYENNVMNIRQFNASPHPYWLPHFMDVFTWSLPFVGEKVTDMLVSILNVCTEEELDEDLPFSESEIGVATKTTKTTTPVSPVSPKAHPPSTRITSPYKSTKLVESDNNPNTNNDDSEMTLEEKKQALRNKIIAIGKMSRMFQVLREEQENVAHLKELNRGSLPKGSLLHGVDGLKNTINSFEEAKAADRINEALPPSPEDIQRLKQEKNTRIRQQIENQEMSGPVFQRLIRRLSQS

[3] = test system: Streptococcus; experiment: GAS UMAA2166 growth inhibition – luminescence, BacTiterGlo, counter-screen for streptokinase expression inhibitor project, dose response (AID 1915); format: functional, organism-based;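 further: potency for reduction of bacterial viability or growth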
[4] = NIH-3T3 fibroblast cytotoxicity, dose response, cytotoxicity control, cell-based, fluorescence, Alamar Blue, secondary assay (AID 2327); format: functional;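 further: NIH-3T3 mouse fibroblasts cultured with fluconazole at 8 µg/mL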
[5] = target: T2, Streptokinase A (Streptococcus pyogenes serotype M1, UniProt P10520); experiment: viability-normalized secreted streptokinase activity reduction – plasminogen activation absorbance, OD405, dose response (AID 1914); format: functional, Streptococcus pyogenes M1 GAS;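 further: secreted streptokinase activity via plasminogen activation per viability signal from cell pellet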
T2 sequence (P10520 whole entry): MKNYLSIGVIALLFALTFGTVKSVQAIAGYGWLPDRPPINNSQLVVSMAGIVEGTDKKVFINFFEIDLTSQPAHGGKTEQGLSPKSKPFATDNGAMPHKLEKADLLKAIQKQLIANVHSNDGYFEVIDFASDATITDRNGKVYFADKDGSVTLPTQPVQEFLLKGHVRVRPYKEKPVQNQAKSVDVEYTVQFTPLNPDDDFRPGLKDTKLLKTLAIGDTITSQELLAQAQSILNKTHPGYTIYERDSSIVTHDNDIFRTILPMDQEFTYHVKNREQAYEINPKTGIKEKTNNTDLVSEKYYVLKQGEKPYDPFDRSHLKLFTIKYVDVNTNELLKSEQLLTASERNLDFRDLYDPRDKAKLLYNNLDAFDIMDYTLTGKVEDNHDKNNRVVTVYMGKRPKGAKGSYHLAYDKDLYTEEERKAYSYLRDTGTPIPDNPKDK

[6] = target: Heat shock protein HSP 90-alpha (Homo sapiens, UniProt P07900); format: functional, organism-based
[7] = target: ATP-dependent molecular chaperone HSP82 (Candida albicans (strain WO-1) (Yeast), UniProt C4YTQ8); experiment: steroid-induced GRE reporter decrease in yeast – S. cerevisiae, luminescence, Hsp90 inhibitor project, dose response (AID 2400); format: functional, cell-based;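 further: beta-galactosidase luminescence from glucocorticoid response element reporter as proxy for Hsp90 function; inhibitor potency where signal loss means Hsp90 inhibition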
[8] = fluconazole-exposed Candida albicans growth modulators – fluorescence, retest, confirmation (AID 2467); format: functional, cell-based
[9] = test system: Escherichia coli; experiment: microbe, parasite or virus in culture
[10] = Luminescence Cell-Based Dose Retest to Confirm Inhibitors of Cancer Stem Cells. [Related pubchem assays (depositor defined):AID2717, AID2721]; format: functional; details: Homo sapiens
[11] = target: Voltage-gated inwardly rectifying potassium channel KCNH2 (Homo sapiens, UniProt Q12809); details: Potency;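 further: confirmatory quantitative high-throughput screen measuring inhibition of hERG channel activity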
[12] = NIH3T3 cell viability loss – ATP luminescence, mouse fibroblasts, counter-screen, dose response (AID 2010); format: functional, cell-based;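 further: cells exposed to compound for about 90 hours before reading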
[13] = MIN6 cell viability loss – mouse insulinoma, cytotoxicity control, dose response (AID 2122); format: functional;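 further: confirmatory high-throughput counterscreen run to flag cytotoxic compounds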
[14] = decrease of insulin promoter-GFP reporter – imaging, high-content screening, mouse beta cells (AID 1628); format: functional; details: MIN6
[15] = Trypanosoma cruzi growth suppression in host cells – NIH3T3 host cells, beta-gal luminescence, confirmation (AID 2044); format: functional, cell-based;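 further: intracellular parasites grown in NIH/3T3 mouse fibroblasts as host cells; luminescent beta-galactosidase reporter signal from transgenic T. cruzi replicating inside host cells; inhibitors lower the luminescence signal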
[16] = target: Phospholipase A2 (Homo sapiens, UniProt P04054); format: functional;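 further: confirmatory dose-response counterscreen on phospholipase A2, testing hits that came from an ultra-high-throughput screen for ATG4B inhibitors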
[17] = target: T3, Cysteine protease ATG4B (Homo sapiens, UniProt Q9Y4P1); format: functional;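 further: Fluorescence-based dose-response confirmation assay measuring inhibition of ATG4B activity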
T3 sequence (Q9Y4P1 whole entry): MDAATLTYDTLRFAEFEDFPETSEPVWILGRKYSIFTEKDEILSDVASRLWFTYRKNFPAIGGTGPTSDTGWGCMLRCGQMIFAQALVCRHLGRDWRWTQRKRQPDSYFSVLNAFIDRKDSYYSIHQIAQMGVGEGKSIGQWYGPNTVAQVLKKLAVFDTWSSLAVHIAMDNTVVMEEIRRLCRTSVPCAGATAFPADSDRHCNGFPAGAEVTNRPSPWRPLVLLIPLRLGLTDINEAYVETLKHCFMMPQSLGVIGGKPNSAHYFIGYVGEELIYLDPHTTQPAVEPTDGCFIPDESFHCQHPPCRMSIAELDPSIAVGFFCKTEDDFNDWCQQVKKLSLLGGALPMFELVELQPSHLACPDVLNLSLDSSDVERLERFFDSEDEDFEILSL

[18] = mammalian cell viability loss – Alamar Blue, dry powder, cytotoxicity control for antifungal single agent project, dose response (AID 602188); format: functional, cell-based
[19] = Luminescence Cell-Based Dose Response HTS to Identify Activators of Luciferase Translation or Activity in H4 […] Cells. [Related pubchem assays: 1829 (Project Summary), 1814 (Primary HTS)]; format: functional
[20] = test system: H4; experiment: Luminescence Cell-Based Dose Response HTS to Identify Activators of 5'UTR Stem-Loop Driven Prion Protein mRNA Translation in H4 Neuroglioblastoma Cells. [Related pubchem assays: 1829 (Project Summary), 1814 (Primary HTS)]; format: functional; details: Homo sapiens
[21] = target: Melanocortin receptor 4 (Homo sapiens, UniProt P32245); format: functional, cell-based;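 further: Cell-based assay with luminescence read-out, confirmatory dose-response testing for agonist activity of biased ligands at MC4R; human U2OS cells with tagged receptor and beta-arrestin; potency of agonists that increase receptor coupling to beta-arrestin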
[22] = Luminescence Cell-Based Dose Confirmation HTS to Identify Activators of 5'UTR Stem-Loop Driven Alpha-Synuclein mRNA Translation in H4 Neuroglioblastoma Cells. [Related pubchem assays: 1829 (Project Summary), 1814 (Primary HTS)]; format: functional
[23] = test system: INS1; experiment: INS-1E survival protection against cytokine death – cell-based, luminescence, retest, dose response (AID 449756); format: functional; details: Rattus norvegicus;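 further: cell death triggered by IL-1 beta plus TNF-alpha plus IFN-gamma mixture; protective hits raise ATP signal compared with cytokine alone wells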
[24] = cells; format: functional, cell-based
[25] = test system: Vero; experiment: cells; format: functional; details: Chlorocebus sabaeus
[26] = cells; format: functional, cell-based; remark: listed apart in the source
[27] = reduction of Shn3 3'UTR-driven luciferase in osteoblasts – cell-based, Clone20 osteoblasts, firefly luciferase, cherry-picked, dose response (AID 624132); format: functional;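 further: firefly luciferase luminescence from reporter carrying the Shn3 3'UTR in osteoblasts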
[28] = target: T4, Microphthalmia-associated transcription factor (Homo sapiens, UniProt O75030); experiment: reducers of TRPM1 reporter luminescence, concentration series – cell-based, SK-MEL-5, cherry-picked, set 3, MITF inhibitor project, dose response (AID 493073); format: functional;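 further: SK-MEL-5 melanoma cells with luciferase driven by the MITF target TRPM1 promoter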
T4 sequence (O75030 whole entry): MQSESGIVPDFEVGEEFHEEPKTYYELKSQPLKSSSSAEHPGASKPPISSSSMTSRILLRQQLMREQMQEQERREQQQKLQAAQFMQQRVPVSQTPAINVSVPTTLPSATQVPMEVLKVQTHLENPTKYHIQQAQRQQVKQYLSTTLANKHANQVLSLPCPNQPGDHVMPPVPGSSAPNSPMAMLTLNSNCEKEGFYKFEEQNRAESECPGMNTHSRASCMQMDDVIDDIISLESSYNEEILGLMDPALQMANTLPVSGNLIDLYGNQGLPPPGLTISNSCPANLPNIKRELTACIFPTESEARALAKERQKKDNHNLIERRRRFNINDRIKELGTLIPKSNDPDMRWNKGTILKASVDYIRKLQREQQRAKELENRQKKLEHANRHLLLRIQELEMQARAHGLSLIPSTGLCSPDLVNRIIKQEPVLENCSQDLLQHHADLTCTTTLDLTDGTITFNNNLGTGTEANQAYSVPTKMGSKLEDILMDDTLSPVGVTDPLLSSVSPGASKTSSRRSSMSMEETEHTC

[29] = non-specific 3'UTR reporter inhibition in Clone20-Shn3RL – cell-based, Renilla luciferase, cherry-picked, counter-screen for Shn3 inhibitor project, dose response (AID 624133); format: functional
[30] = loss of viability in HepG2 cells – cell-based, CellTiter-Glo, cherry-picked, cytotoxicity control for Shn3 inhibitor project, dose response (AID 624134); format: functional
[31] = test system: Vero; experiment: cells; format: functional, cell-based; details: Chlorocebus sabaeus

Phospholipase A2, sequence (P04054 whole entry): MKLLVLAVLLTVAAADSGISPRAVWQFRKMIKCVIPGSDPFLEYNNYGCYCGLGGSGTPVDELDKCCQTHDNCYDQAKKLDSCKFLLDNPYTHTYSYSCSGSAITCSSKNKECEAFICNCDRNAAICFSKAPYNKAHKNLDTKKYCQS
Voltage-gated inwardly rectifying potassium channel KCNH2, sequence (Q12809 whole entry): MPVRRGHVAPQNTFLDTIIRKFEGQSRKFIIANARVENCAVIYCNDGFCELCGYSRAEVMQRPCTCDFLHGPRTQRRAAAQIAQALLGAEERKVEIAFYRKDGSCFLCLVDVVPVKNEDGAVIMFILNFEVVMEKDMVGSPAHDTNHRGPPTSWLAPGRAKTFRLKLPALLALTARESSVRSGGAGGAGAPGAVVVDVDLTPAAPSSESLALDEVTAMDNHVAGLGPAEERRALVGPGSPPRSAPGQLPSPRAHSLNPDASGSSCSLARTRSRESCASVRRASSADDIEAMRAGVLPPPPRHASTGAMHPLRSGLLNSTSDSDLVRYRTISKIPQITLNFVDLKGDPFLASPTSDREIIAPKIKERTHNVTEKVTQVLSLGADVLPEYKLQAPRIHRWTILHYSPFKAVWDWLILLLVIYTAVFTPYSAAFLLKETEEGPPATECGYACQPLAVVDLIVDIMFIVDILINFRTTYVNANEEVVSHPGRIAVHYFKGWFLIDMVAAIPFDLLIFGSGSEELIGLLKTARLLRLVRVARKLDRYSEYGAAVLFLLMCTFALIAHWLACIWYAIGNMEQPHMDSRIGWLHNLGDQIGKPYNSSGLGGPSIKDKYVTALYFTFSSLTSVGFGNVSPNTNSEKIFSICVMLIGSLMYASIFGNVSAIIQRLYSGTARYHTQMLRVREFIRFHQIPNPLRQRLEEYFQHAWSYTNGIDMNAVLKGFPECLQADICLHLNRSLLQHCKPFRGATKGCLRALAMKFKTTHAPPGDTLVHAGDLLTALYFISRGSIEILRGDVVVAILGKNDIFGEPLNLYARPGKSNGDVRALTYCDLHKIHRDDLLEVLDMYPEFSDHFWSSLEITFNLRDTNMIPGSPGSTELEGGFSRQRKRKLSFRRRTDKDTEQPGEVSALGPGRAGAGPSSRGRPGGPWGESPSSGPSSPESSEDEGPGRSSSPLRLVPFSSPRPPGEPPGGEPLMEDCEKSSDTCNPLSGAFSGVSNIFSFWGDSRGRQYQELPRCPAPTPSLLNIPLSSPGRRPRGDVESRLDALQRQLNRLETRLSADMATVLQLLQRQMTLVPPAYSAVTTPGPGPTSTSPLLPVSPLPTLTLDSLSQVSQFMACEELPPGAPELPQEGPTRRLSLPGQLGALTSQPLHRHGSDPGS
Melanocortin receptor 4, sequence (P32245 whole entry): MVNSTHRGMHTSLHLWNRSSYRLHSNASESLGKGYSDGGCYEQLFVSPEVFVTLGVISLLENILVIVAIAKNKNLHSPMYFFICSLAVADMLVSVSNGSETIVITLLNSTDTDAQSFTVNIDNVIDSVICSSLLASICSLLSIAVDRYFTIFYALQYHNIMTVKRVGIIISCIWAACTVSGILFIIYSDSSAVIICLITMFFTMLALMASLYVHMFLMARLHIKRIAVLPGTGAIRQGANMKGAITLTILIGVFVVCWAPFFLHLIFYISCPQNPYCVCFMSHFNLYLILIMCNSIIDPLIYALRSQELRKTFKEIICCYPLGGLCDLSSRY
ATP-dependent molecular chaperone HSP82, sequence (C4YTQ8 whole entry): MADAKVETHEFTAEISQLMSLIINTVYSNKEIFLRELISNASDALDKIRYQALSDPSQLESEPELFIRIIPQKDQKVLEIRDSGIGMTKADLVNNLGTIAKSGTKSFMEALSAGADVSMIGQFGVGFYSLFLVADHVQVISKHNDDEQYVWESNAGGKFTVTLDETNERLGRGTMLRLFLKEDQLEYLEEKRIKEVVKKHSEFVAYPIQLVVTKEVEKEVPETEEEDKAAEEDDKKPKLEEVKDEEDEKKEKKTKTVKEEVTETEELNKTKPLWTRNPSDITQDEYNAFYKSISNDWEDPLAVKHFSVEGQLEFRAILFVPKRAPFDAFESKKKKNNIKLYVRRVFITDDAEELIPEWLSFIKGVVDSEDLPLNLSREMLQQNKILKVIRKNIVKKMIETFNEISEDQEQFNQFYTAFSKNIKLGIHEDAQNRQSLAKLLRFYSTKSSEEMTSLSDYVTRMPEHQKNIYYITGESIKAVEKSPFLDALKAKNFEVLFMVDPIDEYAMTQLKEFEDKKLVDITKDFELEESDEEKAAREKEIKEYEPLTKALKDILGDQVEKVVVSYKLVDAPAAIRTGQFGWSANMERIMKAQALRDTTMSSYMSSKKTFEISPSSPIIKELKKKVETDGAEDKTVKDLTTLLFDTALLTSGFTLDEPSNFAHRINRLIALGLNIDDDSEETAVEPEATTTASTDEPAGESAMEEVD

SMILES: O=C(NNc1nc2ccc(Cl)cc2s1)c1cc(-c2cccs2)nc2ccccc12
- EC50 [1]: 0.472 µM (active)
- EC50 [2]: > 180 µM (inactive)
- EC50 [3]: 5.79 µM (active)
- EC50 [4]: 19.7 µM (active)
- EC50 [5]: > 150 µM (not active)
- AC50 [6]: 2.18 µM (active)
- EC50 [7]: 12.8 µM (active)
- EC50 [8]: 0.433 µM (active)

SMILES: Cc1nc(NC(=O)c2ccco2)sc1-c1csc(Nc2ccc(Cl)cc2)n1
- AC50 [9]: 39.7 µM (active)
- AC50 [10]: 2.03 µM (active)

SMILES: C=C(C)C(=O)OCCCCCCCCCC
- AC50 [11]: 3.55 µM (inconclusive)

SMILES: CS(=O)(=O)N1CCN(C(=O)c2cccnc2)CC1
- AC50 [9]: > 150 µM (inactive)

SMILES: CC(O)[C@@H](O)[C@H]1CNc2nc(N)[nH]c(=O)c2N1 (stereo partly specified)
- AC50 [11]: 3.55 µM (inconclusive)

SMILES: Oc1cc2c(cc1O)CN(C(=S)NCCc1ccc(Cl)cc1)CCC2 [CAPSAZEPINE]
- AC50 [11]: 11.2 µM (inconclusive)

SMILES: CC(C)Cn1cnc2c(c(-c3ccccc3)c(-c3ccccc3)n2Cc2ccco2)c1=N
- EC50 [12]: 8.39 µM (active)
- IC50 [13]: 2.88 µM (active)
- IC50 [14]: 1.69 µM (active)
- EC50 [15]: 0.879 µM (active)

SMILES: CCCCCCOC(=O)Sc1nc2ccccc2o1
- AC50 [6]: 2.78 µM (active)

SMILES: CC1CC(C)CN(C(=O)c2ccc(C(=O)c3ccccc3)cc2)C1 (stereo unspecified)
- IC50 [16]: 8.32 µM (active)
- IC50 [17]: 10.8 µM (active)

SMILES: Cc1ccc(C(=O)Nc2nnc(-c3ccccc3)o2)cc1C
- AC50 [18]: 14.2 µM (active)

SMILES: Cc1nnnn1/C(=C\c1ccccc1)C(=O)OCC(=O)Nc1ccc(Cl)cc1F
- EC50 [19]: > 60 µM (not active)
- EC50 [20]: 5.56 µM (active)
- EC50 [21]: > 89.2 µM (inactive)
- EC50 [22]: > 120 µM (not active)

SMILES: Cc1sc2nc(C3CCCCC3)nc(SCC(=O)N3CC(=O)Nc4ccccc43)c2c1C
- IC50 [16]: 0.182 µM (active)
- IC50 [17]: 0.316 µM (active)

SMILES: Cc1cc(C)n(-c2nc3ccccc3c(=O)n2OCC#N)n1
- EC50 [2]: > 180 µM (inactive)
- EC50 [12]: 4.32 µM (active)
- EC50 [4]: 150 µM (active)
- AC50 [18]: 0.881 µM (active)
- AC50 [23]: 4.13 µM (active)
- EC50 [24]: 137 µM (active)
- EC50 [7]: > 150 µM (inactive)
- EC50 [15]: 1.14 µM (active)
- EC50 [8]: 0.727 µM (active)
- CC50 [25]: 8.68 µM (active)
- EC50 [26]: 28.9 µM (active)

SMILES: COc1ccc(C(=O)C(CN2CCOCC2)c2ccccc2)cc1 (stereo unspecified)
- IC50 [13]: 4.42 µM (active)
- AC50 [27]: 5.59 µM (active)
- IC50 [14]: 4.99 µM (active)
- AC50 [28]: 7.29 µM (active)
- AC50 [29]: 11.2 µM (active)
- AC50 [30]: > 70 µM (inactive)

SMILES: COc1ccc2sc(-c3ccc(S(C)(=O)=O)cc3)c(C#Cc3cncn3C)c2c1
- EC50 [21]: > 89.2 µM (inactive)

SMILES: CCn1c(=O)c2nc(Cl)[nH]c2n(CC)c1=O
- IC50 [31]: 17 µM (active)
- CC50 [25]: > 25 µM (active)

SMILES: Cc1ccc(NC(=O)CN(C)CC(=O)Nc2cccc(F)c2)cc1[N+](=O)[O-]
- IC50 [13]: 0.487 µM (active)
- AC50 [27]: 0.57 µM (active)
- IC50 [14]: 0.765 µM (active)
- AC50 [29]: 10.1 µM (active)
- AC50 [30]: > 70 µM (inactive)

SMILES: Oc1cccc(Cl)c1Cl
- AC50 [11]: 5.01 µM (inconclusive)

SMILES: Oc1c(Br)cc(Br)cc1/C=N/c1ccc2c(c1)OCO2
- IC50 [16]: 7.68 µM (active)
- IC50 [17]: 4.43 µM (active)

Source: ChEMBL document CHEMBL1201862, “PubChem BioAssay data set” (2004)
